Reference: US10280197B2, “Discovery of the first selective C5A receptor 2 (C5L2/C5AR2) ligands” (The Regents of the University of California, priority 2015, dated 2019)

How the values were obtained:
[1] = biological target: T1, human C5a2 (Flp-In CHO-C5a2 membranes) (Homo sapiens, UniProt Q9P296); test: C5a2 receptor binding, scintillation proximity assay (125I-C5a displacement); settings: for Ki: inhibition of 125I-C5a binding to C5a2 membranes; for inhibition of 125I-C5a binding to C5a2 membranes, library screen: single concentration of 100 μM, compared to buffer control, P<0.05; for inhibition of 125I-C5a binding to C5aR2 membranes, full concentration response: up to a maximum concentration of 500 μM
T1 construct: expressed in transfected cells
T1 sequence (Q9P296 whole entry): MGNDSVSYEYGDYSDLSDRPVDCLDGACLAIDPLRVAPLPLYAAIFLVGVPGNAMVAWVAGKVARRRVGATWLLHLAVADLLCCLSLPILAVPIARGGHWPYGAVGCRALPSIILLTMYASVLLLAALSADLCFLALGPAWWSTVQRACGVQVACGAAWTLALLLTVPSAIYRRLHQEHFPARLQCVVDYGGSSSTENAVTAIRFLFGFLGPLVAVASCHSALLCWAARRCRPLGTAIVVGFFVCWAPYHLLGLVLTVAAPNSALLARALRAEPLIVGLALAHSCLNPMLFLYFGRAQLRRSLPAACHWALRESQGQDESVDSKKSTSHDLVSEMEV
Experimental: Membranes were prepared from Flp-In CHO-05a2 cells by a previously described method^46. Briefly, cells were washed with PBS, pH 7.4, and harvested into buffer (50 mM Tris-HCl, pH 7.4, 5 mM MgCl2, 1 mM CaCl2) before homogenizing with a Polytron homogenizer for 3 min on setting 22. Cells were centrifuged at 150×g for 5 min at 4° C. The supernatant was recovered and centrifuged at 22 000×g for 1 h at 4° C. Membrane pellets were then resuspended in 0.4 mL of ice-cold buffer (50 mM Tris-HCl, pH 7.4, 5 mM MgCl2, 1 mM CaCl2, containing 10% glycerol) with aliquots stored at −80° C. The protein concentration of the membrane preparation was determined by Bradford method^47.
C5a2 receptor binding studies were performed using a modification of a previously described scintillation proximity assay (SPA) method^48. Briefly, C5a2 SPA studies were performed in 96-well white isoplates with clear flat bottoms (Perkin Elmer, Waltham, Mass., USA). SPA beads (200 μg/well) were added, following the addition of various concentrations of competing ligands or buffer (6 pM to 500 μM) in a total volume of 80 μL of assay buffer (50 mM Tris-HCl, pH 7.4, 0.5% BSA, 5 mM MgCl2, 1 mM CaCl2). ^125I-C5a (˜20 pM) (specific activity, 2200 Ci mmol^−1) (Perkin Elmer) was added to C5a2 membrane preparations (˜2 μg/well). The final reaction volume per well comprised 20 μL of ligand/buffer, 20 μL of SPA beads, 20 μl of membrane and the assay was initiated by the addition of 20 μL of ^125I-C5a. The plate was then sealed using TopSeal-A (Perkin Elmer) sealing film and incubated with shaking for 1 h at room temperature. Radioligand binding was then assessed for 30 s/well using a 1450 Microbeta scintillation counter (Perkin Elmer).

[2] = biological target: T2, C5aR1 (Homo sapiens, UniProt P21730); test: 125I-C5a binding to C5aR1 membranes; settings: up to a maximum concentration of 500 μM
T2 sequence (P21730 1-350): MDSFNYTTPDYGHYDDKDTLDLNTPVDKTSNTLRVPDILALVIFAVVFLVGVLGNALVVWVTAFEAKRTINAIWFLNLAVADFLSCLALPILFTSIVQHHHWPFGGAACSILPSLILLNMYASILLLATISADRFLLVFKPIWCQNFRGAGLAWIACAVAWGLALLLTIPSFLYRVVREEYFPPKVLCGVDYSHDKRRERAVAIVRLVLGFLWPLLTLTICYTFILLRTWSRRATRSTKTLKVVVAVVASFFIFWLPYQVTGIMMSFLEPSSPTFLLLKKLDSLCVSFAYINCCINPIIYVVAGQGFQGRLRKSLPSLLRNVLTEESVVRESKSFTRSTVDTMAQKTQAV

[3] = biological target: T3, C5a1-C5a2 heteromer (Homo sapiens, UniProt P21730+Q9P296); test: BRET ligand-induced heteromer formation between C5a1 and C5a2; format: cell-based; settings: P32 or P59 100 μM
T3 construct: expressed in transfected cells; host or cells: HEK293 (transient)
T3 sequence (Q9P296 whole entry, one chain of several): as the sequence (Q9P296 whole entry) above
Experimental: Assays were performed as a ligand-induced BRET experiment similar to previously described^17, 31, 49. In brief, HEK293 cells were transiently transfected with either C5a1-Rluc8 and β-arrestin 2-Venus or C5a2-Venus and β-arrestin 2-Rluc8 or C5a1-Rluc8 and C5a2-Venus in a 100-mm dish. 24 h after transfection cells were collected and transferred to a 96-well white microplate (Corning, N.Y., USA) in phenol-red free DMEM containing 5% FBS and 25 mM HEPES (Life Technologies). Cells were allowed to settle for 24 h and then were incubated with 30 μM Enduren (Promega, Madison, Wis., USA) for 2 h at 37° C. and 5% CO2 to ensure that the substrate had reached equilibrium. Following incubation BRET baseline measurements were taken for 15 min then ligands were added to plate and BRET measurements were taken for a further 1 h at 37° C. using a POLARstar optima microplate reader (BMG Labtech, Ortenberg, Germany). Filtered light emissions were sequentially measured for 1 s in each of the following windows 460-490 nm and 520-550 nm, both before and following ligand addition. The ligand-induced BRET ratio was calculated by subtracting the ratio of 520-550 nm emission over the 460-490 nm emission for a vehicle-treated sample from a ligand-treated sample of the same aliquot of cells in triplicate. […]

[4] = biological target: T4, C3aR (Homo sapiens, UniProt Q16581); settings: up to a concentration of 100 μM, reference 27; cited from earlier work
T4 sequence (Q16581 1-482): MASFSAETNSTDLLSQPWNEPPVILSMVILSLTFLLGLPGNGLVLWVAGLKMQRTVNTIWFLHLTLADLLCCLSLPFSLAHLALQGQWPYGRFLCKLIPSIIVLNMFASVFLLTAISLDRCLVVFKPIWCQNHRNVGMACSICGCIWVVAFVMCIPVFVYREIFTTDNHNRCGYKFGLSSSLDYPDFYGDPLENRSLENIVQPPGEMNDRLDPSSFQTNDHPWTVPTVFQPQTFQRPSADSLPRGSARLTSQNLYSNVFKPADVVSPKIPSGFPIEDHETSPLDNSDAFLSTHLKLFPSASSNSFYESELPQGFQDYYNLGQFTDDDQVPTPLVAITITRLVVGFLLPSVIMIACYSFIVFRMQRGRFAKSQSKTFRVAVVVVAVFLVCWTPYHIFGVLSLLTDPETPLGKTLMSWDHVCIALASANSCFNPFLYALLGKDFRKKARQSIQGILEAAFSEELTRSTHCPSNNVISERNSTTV

[5] = biological target: T5, C5a1 (Homo sapiens, UniProt P21730); settings: up to a concentration of 100 μM, reference 27; cited from earlier work
T5 sequence (P21730 1-350): T2 sequence (P21730 1-350)

[6] = biological target: C5a2 (Homo sapiens, UniProt Q9P296); test: BRET C5a2-β-arrestin 2 recruitment assay in HEK293 cells; format: cell-based; design: expressed in transfected cells; host or cells: HEK293 (transient); settings: for efficacy for β-arrestin 2 recruitment relative to affinity for C5a2: EC50 versus Ki; for EC50: calculated at ~40 min after ligand addition; for type of activity for recruitment of β-arrestin 2 via C5a2: compared to C5a
Sequence of C5a2 (Q9P296 whole entry): as the sequence (Q9P296 whole entry) above
Sequence of C5a2 (P32121 whole entry partner): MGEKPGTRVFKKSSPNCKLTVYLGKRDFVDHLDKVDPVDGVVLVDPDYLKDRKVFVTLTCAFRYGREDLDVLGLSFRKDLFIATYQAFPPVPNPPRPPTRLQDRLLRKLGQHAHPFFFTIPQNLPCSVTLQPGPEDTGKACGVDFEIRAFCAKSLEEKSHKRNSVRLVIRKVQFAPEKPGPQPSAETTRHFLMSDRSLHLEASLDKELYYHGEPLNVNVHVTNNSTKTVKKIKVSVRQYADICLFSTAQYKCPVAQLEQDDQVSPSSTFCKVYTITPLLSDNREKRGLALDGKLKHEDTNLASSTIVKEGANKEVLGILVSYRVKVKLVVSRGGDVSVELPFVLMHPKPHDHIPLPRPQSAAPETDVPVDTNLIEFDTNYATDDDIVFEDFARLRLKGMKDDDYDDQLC
Experimental: Assays were performed as a ligand-induced BRET experiment similar to previously described^17, 31, 49. In brief, HEK293 cells were transiently transfected with either C5a1-Rluc8 and β-arrestin 2-Venus or C5a2-Venus and β-arrestin 2-Rluc8 or C5a1-Rluc8 and C5a2-Venus in a 100-mm dish. 24 h after transfection cells were collected and transferred to a 96-well white microplate (Corning, N.Y., USA) in phenol-red free DMEM containing 5% FBS and 25 mM HEPES (Life Technologies). Cells were allowed to settle for 24 h and then were incubated with 30 μM Enduren (Promega, Madison, Wis., USA) for 2 h at 37° C. and 5% CO2 to ensure that the substrate had reached equilibrium. Following incubation BRET baseline measurements were taken for 15 min then ligands were added to plate and BRET measurements were taken for a further 1 h at 37° C. using a POLARstar optima microplate reader (BMG Labtech, Ortenberg, Germany). Filtered light emissions were sequentially measured for 1 s in each of the following windows 460-490 nm and 520-550 nm, both before and following ligand addition. The ligand-induced BRET ratio was calculated by subtracting the ratio of 520-550 nm emission over the 460-490 nm emission for a vehicle-treated sample from a ligand-treated sample of the same aliquot of cells in triplicate. The BRET ratio was calculated by subtracting the ratio of 520-550 nm emission over the 460-490 nm emission for a cell sample containing the C5a1-Rluc8 or β-arrestin 2-Rluc8 construct from a cell sample containing both the C5a1-Rluc8 and β-arrestin 2-Venus or C5a2-Venus and β-arrestin 2-Rluc8 or C5a1-Rluc8 and C5a2-Venus constructs. Peptides were also tested for ligand-induced β-arrestin 2 recruitment at 100 μM using DiscoveRx PathHunter kits for human C5a1 and C5a2 (DiscoveRx Corporation. Birmingham, UK), according to the manufacturer's instructions.

Row | Ki [1] [µM] | inhibition of 125I-C5a binding to C5a2 membranes, library screen [1] | inhibition of 125I-C5a binding to C5aR2 membranes, full concentration response [1] | inhibition of 125I-C5a binding to C5aR1 membranes, full concentration response [2] | C5a2-β-arrestin 2 BRET Recruitment (% of C5a) [6] | efficacy for β-arrestin 2 recruitment relative to affinity for C5a2 [6] [fold] | EC50 [6] [µM] | type of activity for recruitment of β-arrestin 2 via C5a2 [6] | affinity for C5aR2 over C5aR1 ([1]; ratio of C5aR1 and C5aR2 affinities) [fold] | Substance | up-regulation of heteromer formation between C5a1-C5a2 [3] | activity (agonist or antagonist) at C3aR [4] | activity (agonist or antagonist) at C5a1 [5]
1 | 223 | significant inhibition | dose-dependently inhibited | dose-dependently inhibited | 28.8 % of C5a | ~37 | 5.9 ± 3.4 | partial agonists |  | Ac-RHYPYWR-OH [Peptide P32, Ac-RHYPYWR-OH] | neither P32 or P59 were able to up-regulate heteromer formation | no activity | no activity
2 | 48 | significant inhibition | dose-dependently inhibited | dose-dependently inhibited | 52.9 % of C5a | ~6 | 7.6 ± 0.6 | partial agonists | ~10 | Ac-LIRLWR-OH [Peptide P59, Ac-LIRLWR-OH] | neither P32 or P59 were able to up-regulate heteromer formation | no activity | no activity
